# Measured values taken from US7173010B2, “Orphanin FQ receptor” (Regents of the University of Michigan, priority 2003, dated 2007).
# No end group written: not given here.
# Columns and labels:
# [1] = molecular target: T1, Orphanin FQ receptor (OFQR) (Rattus norvegicus, UniProt P35370); assay: Inhibition of [^125I] Y14-OFQ17 binding / specific OFQ binding in Cos-7 cells transfected with normal OFQR gene; settings: Cos-7 cells transfected with OFQR gene; for IC50: read-out: IC50, concentration dependent inhibition of [^125I] Y14-OFQ17 binding
# T1 construct: expressed in transfected cells; host or cells: Cos-7
# [2] = test system: circular muscle strips of distal colon; assay: Spontaneous contraction of circular muscle strips of distal colon from rats with postoperative ileus, in vitro; parameters: species or system rat; settings: strips from rats with PI, 4 h after surgery
# Procedure: In vitro and in vivo colonic motility studies were performed using a known rat model of PI. Rats equipped with a colonic cannula underwent a sham operation or laparotomy plus simple cecum manipulation. Circular muscle strips of distal colon were studied in vitro 4 h after surgery. Cecum manipulation reduced spontaneous colonic muscle contraction by 50% compared to sham operation. […] Similarly, OFQ (10^−7 mol/L) reversed the inhibitory effects; contraction increased 450±60% over basal. […] ATP in myenteric neurons increased 2.5-fold, as measured by quinacrine immunofluorescence. In response to electrical field stimulation, ATP release (luciferase assay) from colonic tissue after cecum manipulation was 50% more than after sham operation. In vivo measurement of colonic transit using carmine migration was performed 4 h after cecum manipulation. In sham-operated rats, carmine migrated 90.8±6.5% of the colon length in 2 h. Cecum manipulation slowed transit 68±5% compared to sham operation. OFQ dose-dependently reversed delayed colonic transit evoked by cecum manipulation (0.5 and 1 nmol/L OFQ improved transit to 76±4% and 94±3%). […] These changes contribute to delayed colonic transit. OFQ, a potent inhibitor of purinergic transmission, reversed PI in rats.
# [3] = test system: colonic contractions; assay: Colonic contractions after infusion of peptide; format: in vivo
# [4] = molecular target: T2, OFQ receptor (Rattus norvegicus, UniProt P35370); format: cell-based; settings: Cos-7 cells transfected with OFQ receptor gene
# T2 construct: in Cos-7 cells transfected with OFQ receptor gene; expressed in transfected cells; host or cells: Cos-7
# Text: Orphanin FQ is a neuropeptide that structurally resembles an opioid peptide. […] While not being limited to any particular mechanism, the present invention contemplates that Orphanin FQ stimulates peristalsis and enhances colonic transit by inhibiting purinergic pathways in myenteric plexus. To delineate the molecular interactions between OFQR and its ligands, Cos-7 cells were transfected with normal or chimeric OFQR genes. […] The ability of Orphanin FQ and related peptides to inhibit cAMP production in Cos-7 cells was evaluated. […] Dynorphin encoding nucleic acids and gene products are known in the art, see for example, NM_024411, NM_133828, NM_174139, NM_018863, M10088, AH002816, K02268, K02267, Alo34562, U58500, and U38912.
# [5] = test system: colonic transit; assay: Colonic transit (geometric center) after subcutaneous administration; format: in vivo
# T1 sequence (P35370 whole entry): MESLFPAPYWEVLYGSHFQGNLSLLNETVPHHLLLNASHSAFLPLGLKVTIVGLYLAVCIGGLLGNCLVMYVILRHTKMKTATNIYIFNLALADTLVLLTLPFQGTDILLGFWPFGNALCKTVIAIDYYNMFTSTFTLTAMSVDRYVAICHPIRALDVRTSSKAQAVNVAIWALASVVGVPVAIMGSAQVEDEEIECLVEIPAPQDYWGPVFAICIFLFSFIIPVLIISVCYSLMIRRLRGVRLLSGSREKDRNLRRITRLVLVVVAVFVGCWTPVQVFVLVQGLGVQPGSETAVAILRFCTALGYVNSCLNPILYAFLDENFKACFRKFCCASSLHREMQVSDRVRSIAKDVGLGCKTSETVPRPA
# T2 sequence (P35370 whole entry): as above
compound,measurement,setting,value
FGGFTGARKSA [OFQ11],IC50,[1],5000 nM
FGGFTGAKKSARKLANQ [R8K],IC50,[1],0.1 nM
PPADGS,enhancement of spontaneous contraction over basal,[2]; 3×10^−5 mol/L,5±4%
"Orphanin FQ(1–12): Orphanin FQ fragment, amino acids 1–12 (FGGFTGARKSAR; Nociceptin; UniProt Q13519 130-141, looked up, fragment)","potency relative to Orphanin FQ(1–17), times less potent",[3]; in vivo,100 times
FGGFTGARKSARCLANQ [K13C],IC50,[1],0.1 nM
"substitution by tyrosine: Orphanin FQ with Phe in position 1 substituted by tyrosine (YGGFTGARKSARKLANQ; Nociceptin; UniProt Q13519 130-146, looked up, variant F1Y)",Orphanin FQ activity of substituted analogues,[3]; in vivo,no loss of activity
Pertussis toxin,effect on the inhibitory action of OFQ on cAMP production,[4],reversed the inhibitory action of OFQ
"Dyn A: Dynorphin A, peptide with structural homology to Orphanin FQ (YGGFLRRIRPKLKWDNQ; Dynorphin A(1-17); UniProt P01213 207-223, looked up)","colonic transit, geometric center",[5]; 30 nmol/kg,3.14±0.21
same,"colonic transit, geometric center",[5]; 100 nmol/kg,2.42±0.17
same,type of contractions induced,[3]; infusion 100 nmol/kg/min,evoked non-migrating simultaneous contractions
Dynorphin 17: Dynorphin peptide tested for effect on OFQ binding,effect on OFQ binding,[1],no effect
Nc1c(S(=O)(=O)O)cc(Nc2ccc(Nc3nc(Cl)nc(Nc4cccc(S(=O)(=O)O)c4)n3)c(S(=O)(=O)O)c2)c2c1C(=O)c1ccccc1C2=O [reactive blue 2],enhancement of spontaneous contraction over basal,[2]; 3×10^−5 mol/L,287±20%
"replacement of Arg^8 by L-alanin: Orphanin FQ with Arg8 replaced by L-alanine (FGGFTGAAKSARKLANQ; Nociceptin; UniProt Q13519 130-146, looked up, variant R8A)",Orphanin FQ activity of substituted analogues,[3]; in vivo,complete loss of activity
"Orphanin FQ(1–13): Orphanin FQ fragment, amino acids 1–13",potency in stimulating contractions compared with full peptide Orphanin FQ(1–17),[3]; in vivo,same potency
Cc1ccc(C(=O)Nc2ccc(S(=O)(=O)O)c3cc(S(=O)(=O)O)cc(S(=O)(=O)O)c23)cc1NC(=O)c1cccc(NC(=O)Nc2cccc(C(=O)Nc3cc(C(=O)Nc4ccc(S(=O)(=O)O)c5cc(S(=O)(=O)O)cc(S(=O)(=O)O)c45)ccc3C)c2)c1 [Suramin],enhancement of spontaneous contraction over basal,[2]; 10^−4 mol/L,210±15%
β endorphin 31: opioid peptide tested for effect on OFQ binding,effect on OFQ binding,[1],no effect
